Data taken from patent US20150208645A1, “PHYTOSANITARY COMPOSITIONS COMPRISING AN ETHER-AMIDE COMPOUND” (priority 2012, published 2015).

Tests used:
Format in all cases: physicochemical
[1] = Visual observation at 0° C. with nucleation (crystal of active material introduced, again 7 days at 0° C.); conditions: 10% Alkamuls RC, remainder the solvent, seeded with crystal, further 7 days at 0° C.
Protocol: By mixing the ingredients, formulations of various phytosanitary active ingredients of the type emulsifiable concentrate type (EC) are prepared. The formulations comprise: […]
10% by weight of the surfactant Alkamuls® RC, marketed by Rhodia
and, as a solvent, the remainder of the compound of the examples.
The following tests are conducted:
Visual observation at 0° C. with nucleation: A crystal of active material is introduced into the formulation having spent 7 days at 0° C. formulation, and the formulation is again placed for 7 days at 0° C. The aspect of the formulation is noted and the presence of crystals is optionally located.

[2] = Visual observation at 0° C. after 7 days (test CIPAC MT39); conditions: 10% Alkamuls RC, remainder the solvent, 7 days at 0° C.
Protocol: (§1) By mixing the ingredients, formulations of various phytosanitary active ingredients of the type emulsifiable concentrate type (EC) are prepared. […] The following tests are conducted: Visual observation at 0° C.—The formulation is placed for 7 days at 0° C. and the aspect of the formulation is noted and the presence of crystals is optionally located (test CIPAC MT39)

[3] = Visual observation at 25° C. of EC formulation (aspect, presence of crystals); conditions: 10% Alkamuls RC, remainder the solvent
Protocol: as §1, with “25°” for “0°”, “C.—The” for “C.—The formulation is placed for 7 days at 0° C. and the”, “located” for “located (test CIPAC MT39)”

[4] = EC formulation: Azoxystrobin 25% by weight
[5] = EC formulation: Difenconazole 25% by weight
[6] = EC formulation: Dimethoate 40% by weight
[7] = EC formulation: Oxyfluorfen 22% by weight
[8] = EC formulation: Phenmedipham 16% by weight
[9] = EC formulation: Propanil 36% by weight
[10] = EC formulation: Propoxur 20% by weight
[11] = EC formulation: Tebuconazole 25% by weight
[12] = EC formulation: Trifluralin 40% by weight

For `CCOCCCC(=O)N(C)C` [Compound 4], the “Aspect at 0° C. with nucleation” value [1, 4] was “Crystals”, the “Aspect at 0° C. with nucleation” value [1, 5] was “Limpid” and the “Aspect at 0° C. with nucleation” value [1, 6] was “Limpid”. For the same molecule, the “Aspect at 0° C. with nucleation” value [1, 7] was “Cloudy”, the “Aspect at 0° C. with nucleation” value [1, 8] was “Limpid” and the “Aspect at 0° C. with nucleation” value [1, 9] was “Limpid”. For the same molecule, the “Aspect at 0° C. with nucleation” value [1, 10] was “Limpid”, the “Aspect at 0° C. with nucleation” value [1, 11] was “Limpid” and the “Aspect at 0° C. with nucleation” value [1, 12] was “Crystals”. For the same molecule, the “Aspect at 0° C.” value [2, 4] was “Crystals”, the “Aspect at 0° C.” value [2, 5] was “Limpid” and the “Aspect at 0° C.” value [2, 6] was “Limpid”. For the same molecule, the “Aspect at 0° C.” value [2, 7] was “Cloudy”, the “Aspect at 0° C.” value [2, 8] was “Limpid” and the “Aspect at 0° C.” value [2, 9] was “Limpid”. The “Aspect at 0° C.” value [2, 10] was “Limpid”, the “Aspect at 0° C.” value [2, 11] was “Limpid” and the “Aspect at 0° C.” value [2, 12] was “Limpid”. The “Aspect at 25° C.” value [3, 4] was “Crystals”, the “Aspect at 25° C.” value [3, 5] was “Limpid” and the “Aspect at 25° C.” value [3, 6] was “Limpid”. For the same molecule, the “Aspect at 25° C.” value [3, 7] was “Cloudy”, the “Aspect at 25° C.” value [3, 8] was “Limpid” and the “Aspect at 25° C.” value [3, 9] was “Limpid”. The “Aspect at 25° C.” value [3, 10] was “Limpid”, the “Aspect at 25° C.” value [3, 11] was “Limpid” and the “Aspect at 25° C.” value [3, 12] was “Limpid”.
